According to patent EP0109294A2, “Cephalosporin esters” (Takeda Chemical Industries, Ltd., priority 1982, dated 1984):
Structures can show the parent of a compound that is named as a salt.

Assay: in vivo
Design: species or system mice
Settings: mouse, 100 mg/kg; for Bio-availability / AUC / Plasma level of non-ester 2 hr: 120 min; for Plasma level of non-ester 0.25 hr / Plasma level of non-ester 0.5 hr / Plasma level of non-ester 1 hr / AUC / Plasma level of non-ester 2 hr: po; for Plasma level of non-ester 0.25 hr: 15 min; for Plasma level of non-ester 0.5 hr: 30 min; for Plasma level of non-ester 1 hr: 60 min
Protocol: The compounds produced according to the Examples (Compound Nos. 2, 4, 6 and 8) and, as a reference control, pivaloyloxymethyl ester of compound (II) (hereinafter referred to as Compound A) are orally administered to mice at a common dose level of 100 mg/kg (as the non-ester, i.e. compound (II) per mouse). After administration, the plasma concentrations of compound (II) at 0.25, 0.5, 1.0 and 2.0 hours are determined by the cup assay method (using Proteus mirabilis Eb 313 as the test organism) and the area under plasma concentration- time curve (AUC) over 0 to 2 hours is calculated.
As a control, compound (II) is subcutaneously administered to mice at the same dose and the AUC is similarly calculated.

Structure (SMILES) | AUC at 2 h (sc) | concentration at 0.25 h (sc) | concentration at 0.5 h (sc) | concentration at 1 h (sc) | concentration at 2 h (sc) | Bio-availability (sc) | Bio-availability | Plasma level of non-ester 0.25 hr | Plasma level of non-ester 0.5 hr | Plasma level of non-ester 1 hr | AUC | Plasma level of non-ester 2 hr
CN(C)CCn1nnnc1SCC1=C(C(=O)O)N2C(=O)[C@@H](NC(=O)Cc3csc(N)n3)[C@H]2SC1 [compound (II), 7S-[2-(2-aminothiazol-4-yl)-acetamido]-3-[[[1-(2-dimethylaminoethyl)-1H-tetrazol-5-yl]thio]methyl]ceph-3-em-4-carboxylic acid, reference compound] | 38800 ng·h/mL | 69200 ng/mL | 29000 ng/mL | 13200 ng/mL | 1500 ng/mL | 100 | – | – | – | – | – | –
CC(OC(=O)CC1CCCC1)OC(=O)C1=C(CSc2nnnn2CCN(C)C)CS[C@@H]2[C@H](NC(=O)Cc3csc(N)n3)C(=O)N12 (stereo partly drawn) [Compound No. 6, 1-(Cyclopentylacetoxy)ethyl 7β-[2-(2-aminothiazol-4-yl)acetamido]-3-[[[1-(2-dimethylaminoethyl)-1H-tetrazol-5-yl]thio]methyl] ceph-3-em-4-carboxylate dihydrochloride] | – | – | – | – | – | – | 82.2 | 23200 ng/mL | 27200 ng/mL | 16900 ng/mL | 31900 ng·h/mL | 6460 ng/mL
CC(OC(=O)C1=C(CSc2nnnn2CCN(C)C)CS[C@@H]2[C@H](NC(=O)Cc3csc(N)n3)C(=O)N12)OC(=O)C1CCCC1 (stereo partly drawn) [Compound No. 8, 1-(Cyclopentanecarbonyloxy)ethyl 7β-[2-(2-aminothiazol-4-yl)acetamido]-3-[[[1-(2-dimethylaminoethyl)-1H-tetrazol-5-yl]thio]methyl] ceph-3-em-4-carboxylate dihydrochloride] | – | – | – | – | – | – | 78.3 | 42500 ng/mL | 29900 ng/mL | 10500 ng/mL | 30400 ng·h/mL | 1350 ng/mL
CC(OC(=O)CC1CCCCC1)OC(=O)C1=C(CSc2nnnn2CCN(C)C)CS[C@@H]2[C@H](NC(=O)Cc3csc(N)n3)C(=O)N12 (stereo partly drawn) [Compound No. 2, 1-(Cyclohexylacetoxy)ethyl 7β-[2-(2-aminothiazol-4-yl)acetamido]-3-[[[1-(2-dimethylaminoethyl)-1H-tetrazol-5-yl]thio]methyl] ceph-3-em-4-carboxylate dihydrochloride] | – | – | – | – | – | – | 107.7 | 43900 ng/mL | 45200 ng/mL | 16400 ng/mL | 41800 ng·h/mL | 3100 ng/mL

Second part, the compound after the results:

AUC at 2 h (sc) | concentration at 0.25 h (sc) | concentration at 0.5 h (sc) | concentration at 1 h (sc) | concentration at 2 h (sc) | Bio-availability (sc) | Bio-availability | Plasma level of non-ester 0.25 hr | Plasma level of non-ester 0.5 hr | Plasma level of non-ester 1 hr | AUC | Plasma level of non-ester 2 hr | Structure (SMILES)
– | – | – | – | – | – | 41.8 | 21000 ng/mL | 16200 ng/mL | 6100 ng/mL | 16200 ng·h/mL | 600 ng/mL | CN(C)CCn1nnnc1SCC1=C(C(=O)OCOC(=O)C(C)(C)C)N2C(=O)[C@@H](NC(=O)Cc3csc(N)n3)[C@H]2SC1 [Compound A, pivaloyloxymethyl ester of compound (II), reference compound]
– | – | – | – | – | – | 76.2 | 43600 ng/mL | 31700 ng/mL | 8380 ng/mL | 29600 ng·h/mL | 1010 ng/mL | CC(OC(=O)C1=C(CSc2nnnn2CCN(C)C)CS[C@@H]2[C@H](NC(=O)Cc3csc(N)n3)C(=O)N12)OC(=O)C1CCCCC1 (stereo partly drawn) [Compound No. 4, 1-(Cyclohexanecarbonyloxy)ethyl 7β-[2-(2-amino-thiazol-4-yl)acetamido]-3-[[[1-(2-dimethylaminoethyl)-1H-tetrazol-5-yl]thio]methyl] ceph-3-em-4-carboxylate dihydrochloride]
